Test results reported in the supplement of paper PMC10307832.

Tests used:
Experiment in all cases: relative viability (nuclei count vs DMSO), 5 days (fraction); higher = more cells survive
[1] = compound: Cn1cc(-c2cnn3c(N)c(Br)c([C@@H]4CCCNC4)nc23)cn1 + Cc1cc(Nc2cc(N3CCN(C)CC3)nc(Sc3ccc(NC(=O)C4CC4)cc3)n2)n[nH]1 [Tozasertib] (partner 0.1 µM)
Method in brief: (§1)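 Lung cancer cell lines were pin-tool dosed in 1536-well plates on the day after seeding, with either a lone drug or a fixed anchor-drug dose plus five library-drug doses (not always all listed) in √10 steps. Nuclei were counted on 4× images after 5 days. Relative viability is the ratio of treated-well to vehicle-well nuclei counts, with each value a median of duplicate plates.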

[2] = compound: Cn1cc(-c2cnn3c(N)c(Br)c([C@@H]4CCCNC4)nc23)cn1 + Cc1nc(Nc2ncc(C(=O)Nc3c(C)cccc3Cl)s2)cc(N2CCN(CCO)CC2)n1 [Dasatinib] (partner 0.075 µM)
Method in brief: as §1

[3] = compound: Cn1cc(-c2cnn3c(N)c(Br)c([C@@H]4CCCNC4)nc23)cn1 + CCNC(=O)c1noc(-c2cc(C(C)C)c(O)cc2O)c1-c1ccc(CN2CCOCC2)cc1 [Luminespib] (partner 0.01 µM)
Method in brief: as §1

[4] = compound: Cn1cc(-c2cnn3c(N)c(Br)c([C@@H]4CCCNC4)nc23)cn1 + N=C(N)NC(=N)NCCc1ccccc1 [Phenformin] (partner 250 µM)
Method in brief: as §1

[5] = compound: Cn1cc(-c2cnn3c(N)c(Br)c([C@@H]4CCCNC4)nc23)cn1 + COc1cccc2cc(-c3nc([C@H]4CC[C@H](C(=O)O)CC4)n4ncnc(N)c34)[nH]c12 [OSI-027] (partner 0.5 µM)
Method in brief: as §1

[6] = compound: Cn1cc(-c2cnn3c(N)c(Br)c([C@@H]4CCCNC4)nc23)cn1 + COc1cc2c(Oc3ccc(NC(=O)C4(C(=O)Nc5ccc(F)cc5)CC4)cc3F)ccnc2cc1OCCCN1CCOCC1 [Foretinib] (partner 0.25 µM)
Method in brief: as §1

[7] = compound: Cn1cc(-c2cnn3c(N)c(Br)c([C@@H]4CCCNC4)nc23)cn1
Method in brief: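 Viability was defined as treated-well nuclei divided by vehicle-well nuclei, with the median taken over replicate plates. Cells from lung cancer lines sat overnight at 37 °C in 1536-well plates, received five √10-spaced library-drug doses by pinning on vehicle-anchored plates, and grew 5 days without medium change before one-step fixation, permeabilisation and Hoechst staining, 4× imaging and MetaXpress nuclear counts. Only plates with control CV under 25% and at least one doubling were kept.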

[8] = compound: Cn1cc(-c2cnn3c(N)c(Br)c([C@@H]4CCCNC4)nc23)cn1 + O=C(CCCCCCC(=O)Nc1ccccc1)NO [Vorinostat] (partner 1 µM)
Method in brief: as §1

[9] = compound: Cn1cc(-c2cnn3c(N)c(Br)c([C@@H]4CCCNC4)nc23)cn1 + Nc1nc2[nH]cc(CCc3ccc(C(=O)N[C@@H](CCC(=O)O)C(=O)O)cc3)c2c(=O)[nH]1 [Pemetrexed] (partner 0.2 µM)
Method in brief: as §1

[10] = compound: Cn1cc(-c2cnn3c(N)c(Br)c([C@@H]4CCCNC4)nc23)cn1 + NC(=O)Nc1cc(-c2cccc(F)c2)sc1C(=O)N[C@H]1CCCNC1 [AZD7762] (partner 0.2 µM)
Method in brief: as §1

[11] = compound: Cn1cc(-c2cnn3c(N)c(Br)c([C@@H]4CCCNC4)nc23)cn1 + CC(=O)Nc1cccc(-n2c(=O)n(C3CC3)c(=O)c3c(Nc4ccc(I)cc4F)n(C)c(=O)c(C)c32)c1 [Trametinib] (partner 0.02 µM)
Method in brief: as §1

[12] = compound: Cn1cc(-c2cnn3c(N)c(Br)c([C@@H]4CCCNC4)nc23)cn1 + Nc1ncn([C@H]2C[C@H](O)[C@@H](CO)O2)c(=O)n1 [Decitabine] (partner 2 µM)
Method in brief: as §1

[13] = compound: Cn1cc(-c2cnn3c(N)c(Br)c([C@@H]4CCCNC4)nc23)cn1 + O=C(c1cc(Cc2n[nH]c(=O)c3ccccc23)ccc1F)N1CCN(C(=O)C2CC2)CC1 [Olaparib] (partner 8 µM)
Method in brief: as §1

[14] = compound: Cn1cc(-c2cnn3c(N)c(Br)c([C@@H]4CCCNC4)nc23)cn1 + CC(=O)c1c(C)c2cnc(Nc3ccc(N4CCNCC4)cn3)nc2n(C2CCCC2)c1=O [Palbociclib] (partner 0.5 µM)
Method in brief: as §1

NCI-H1623 was tested, and the relative viability ([1]; first compound 0.05 µM) was 0.425, the relative viability ([1]; first compound 0.1581 µM) was 0.421 and the relative viability ([1]; first compound 0.5 µM) was 0.467. The relative viability ([1]; first compound 1.581 µM) was 0.41, the relative viability ([1]; first compound 5 µM) was 0.38 and the relative viability ([2]; first compound 0.05 µM) was 0.475. It also gave a relative viability ([2]; first compound 0.1581 µM) of 0.474, a relative viability ([2]; first compound 0.5 µM) of 0.536 and a relative viability ([2]; first compound 1.581 µM) of 0.477. For the same cell line, the relative viability ([2]; first compound 5 µM) was 0.399, the relative viability ([3]; first compound 0.05 µM) was 0.41 and the relative viability ([3]; first compound 0.1581 µM) was 0.399. The relative viability ([3]; first compound 0.5 µM) was 0.538, the relative viability ([3]; first compound 1.581 µM) was 0.851 and the relative viability ([3]; first compound 5 µM) was 0.322. The relative viability ([4]; first compound 0.05 µM) was 0.561, the relative viability ([4]; first compound 0.1581 µM) was 0.628 and the relative viability ([4]; first compound 0.5 µM) was 0.632. The relative viability ([4]; first compound 1.581 µM) was 0.567, the relative viability ([4]; first compound 5 µM) was 0.432 and the relative viability ([5]; first compound 0.05 µM) was 0.426. It also gave a relative viability ([5]; first compound 0.1581 µM) of 0.456, a relative viability ([5]; first compound 0.5 µM) of 0.407 and a relative viability ([5]; first compound 1.581 µM) of 0.418. For the same cell line, the relative viability ([5]; first compound 5 µM) was 0.382, the relative viability ([6]; first compound 0.05 µM) was 0.811 and the relative viability ([6]; first compound 0.1581 µM) was 0.831. It also gave a relative viability ([6]; first compound 0.5 µM) of 0.97, a relative viability ([6]; first compound 1.581 µM) of 0.844 and a relative viability ([6]; first compound 5 µM) of 0.606. The relative viability ([7]; 0.05 µM) was 0.984, the relative viability ([7]; 0.1581 µM) was 0.9 and the relative viability ([7]; 0.5 µM) was 1.04. The relative viability ([7]; 1.581 µM) was 0.942 and the relative viability ([7]; 5 µM) was 0.755.
Cell Line NCI-H2342 has a relative viability ([8]; first compound 0.05 µM) of 0.636, a relative viability ([8]; first compound 0.1581 µM) of 0.8 and a relative viability ([8]; first compound 0.5 µM) of 0.824. The relative viability ([8]; first compound 1.581 µM) was 0.68, the relative viability ([8]; first compound 5 µM) was 0.712 and the relative viability ([1]; first compound 0.05 µM) was 0.547. For the same cell line, the relative viability ([1]; first compound 0.1581 µM) was 0.522, the relative viability ([1]; first compound 0.5 µM) was 0.531 and the relative viability ([1]; first compound 1.581 µM) was 0.52. The relative viability ([1]; first compound 5 µM) was 0.408, the relative viability ([9]; first compound 0.05 µM) was 0.867 and the relative viability ([9]; first compound 0.1581 µM) was 0.846. For the same cell line, the relative viability ([9]; first compound 0.5 µM) was 0.762, the relative viability ([9]; first compound 1.581 µM) was 0.788 and the relative viability ([9]; first compound 5 µM) was 0.778. The relative viability ([10]; first compound 0.05 µM) was 0.493, the relative viability ([10]; first compound 0.1581 µM) was 0.491 and the relative viability ([10]; first compound 0.5 µM) was 0.542. The relative viability ([10]; first compound 1.581 µM) was 0.487, the relative viability ([10]; first compound 5 µM) was 0.29 and the relative viability ([11]; first compound 0.05 µM) was 0.801. It also gave a relative viability ([11]; first compound 0.1581 µM) of 0.9, a relative viability ([11]; first compound 0.5 µM) of 0.682 and a relative viability ([11]; first compound 1.581 µM) of 0.835. It also gave a relative viability ([11]; first compound 5 µM) of 0.777, a relative viability ([12]; first compound 0.05 µM) of 0.728 and a relative viability ([12]; first compound 0.1581 µM) of 0.731. It also gave a relative viability ([12]; first compound 0.5 µM) of 0.696, a relative viability ([12]; first compound 1.581 µM) of 0.639 and a relative viability ([12]; first compound 5 µM) of 0.742. For the same cell line, the relative viability ([2]; first compound 0.05 µM) was 0.31, the relative viability ([2]; first compound 0.1581 µM) was 0.3 and the relative viability ([2]; first compound 0.5 µM) was 0.345. It also gave a relative viability ([2]; first compound 1.581 µM) of 0.336, a relative viability ([2]; first compound 5 µM) of 0.28 and a relative viability ([3]; first compound 0.05 µM) of 0.764. The relative viability ([3]; first compound 0.1581 µM) was 0.88, the relative viability ([3]; first compound 0.5 µM) was 0.773 and the relative viability ([3]; first compound 1.581 µM) was 0.708. It also gave a relative viability ([3]; first compound 5 µM) of 0.615, a relative viability ([4]; first compound 0.05 µM) of 0.578 and a relative viability ([4]; first compound 0.1581 µM) of 0.6. It also gave a relative viability ([4]; first compound 0.5 µM) of 0.682, a relative viability ([4]; first compound 1.581 µM) of 0.533 and a relative viability ([4]; first compound 5 µM) of 0.593. For the same cell line, the relative viability ([13]; first compound 0.05 µM) was 0.467, the relative viability ([13]; first compound 0.1581 µM) was 0.585 and the relative viability ([13]; first compound 0.5 µM) was 0.448. It also gave a relative viability ([13]; first compound 1.581 µM) of 0.463, a relative viability ([13]; first compound 5 µM) of 0.438 and a relative viability ([5]; first compound 0.05 µM) of 0.52. It also gave a relative viability ([5]; first compound 0.1581 µM) of 0.632, a relative viability ([5]; first compound 0.5 µM) of 0.585 and a relative viability ([5]; first compound 1.581 µM) of 0.526. For the same cell line, the relative viability ([5]; first compound 5 µM) was 0.593, the relative viability ([14]; first compound 0.05 µM) was 0.531 and the relative viability ([14]; first compound 0.1581 µM) was 0.55. It also gave a relative viability ([14]; first compound 0.5 µM) of 0.446, a relative viability ([14]; first compound 1.581 µM) of 0.56 and a relative viability ([14]; first compound 5 µM) of 0.507. For the same cell line, the relative viability ([6]; first compound 0.05 µM) was 1.13, the relative viability ([6]; first compound 0.1581 µM) was 1.19 and the relative viability ([6]; first compound 0.5 µM) was 1.09. It also gave a relative viability ([6]; first compound 1.581 µM) of 0.92, a relative viability ([6]; first compound 5 µM) of 1.07 and a relative viability ([7]; 0.05 µM) of 0.974. It also gave a relative viability ([7]; 0.1581 µM) of 1.23, a relative viability ([7]; 0.5 µM) of 1.05 and a relative viability ([7]; 1.581 µM) of 0.947. For the same cell line, the relative viability ([7]; 5 µM) was 0.91.
